# Results as given in publication PMC8041284, “Tunable Methacrylamides for Covalent Ligand Directed Release Chemistry” (Journal of the American Chemical Society, 2021).
# Biological target: BTK (Homo sapiens, UniProt Q06187)
# Test: biochemical
# Conditions: read-out: BTK inhibition (%), 0.75 uM BTK, […] probe 3l, 15 min preincubation
# Chain of BTK (Q06187 402-655 limits assumed): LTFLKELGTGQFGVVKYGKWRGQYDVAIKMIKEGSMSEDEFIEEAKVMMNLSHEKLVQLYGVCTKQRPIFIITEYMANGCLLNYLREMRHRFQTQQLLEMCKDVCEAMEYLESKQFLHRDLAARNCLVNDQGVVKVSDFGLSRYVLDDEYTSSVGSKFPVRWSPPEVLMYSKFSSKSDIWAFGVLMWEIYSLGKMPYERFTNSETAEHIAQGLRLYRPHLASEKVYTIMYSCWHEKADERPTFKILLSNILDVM
row,SMILES,inhibition at 10 µM
1,NC(=O)CC[C@@H](N)C(=O)O [PCM-0095186],6%
2,CCCCc1nc2cc(/C=C/C(=O)NO)ccc2n1CCN(CC)CC [PCM-0095187],9.7%
3,Nc1ccn(C[C@@H](CO)OCP(=O)(O)O)c(=O)n1 [PCM-0095189],-12.8%
4,O=C(O)C[C@H](O)C[C@H](O)/C=C/c1c(C2CC2)nc2ccccc2c1-c1ccc(F)cc1 [PCM-0095199],-36.6%
5,CC(C)N(CCNC(=O)CN1CCCC1=O)C(C)C [PCM-0095202],1.6%
6,N[C@@H]1CN(c2c(F)cc3c(=O)c(C(=O)O)cn([C@@H]4C[C@@H]4F)c3c2Cl)CC12CC2 [PCM-0095203],-6.8%
7,O=C(Nc1ncc(SCCN2CCCC2)s1)[C@]1(c2ccc(S(=O)(=O)C3CC3)cc2)C[C@H]1C1CCCCC1 [PCM-0095206],-8.6%
8,NC1=N[C@@]2(c3cc(NC(=O)c4ccc(F)cn4)ccc3F)COC[C@H]2CS1 [PCM-0095207],-3.1%
9,O=C(c1ccc(/C=C/c2n[nH]c3ccccc23)cc1)N1CCNCC1 [PCM-0095209],46.2%
10,CCCN1CCO[C@@H]2c3cc(O)ccc3OC[C@H]21 [PCM-0095211],-8.6%
11,CCC[C@@H]1C[C@@H](C(=O)N[C@@H]([C@H]2O[C@H](SC)[C@H](OP(=O)(O)O)[C@@H](O)[C@H]2O)[C@H](C)Cl)N(C)C1 [PCM-0095212],-5.1%
12,Nc1ccn([C@@H]2O[C@H](CO)[C@@H](O)[C@H]2O)c(=O)n1 [PCM-0095215],-15.6%
13,O=c1cc(O)c(Cl)c[nH]1 [PCM-0095217],-3.9%
14,Cc1cc(Nc2cc(CN3CCOCC3)c3nc(C)c(Cc4ccc(Cl)cc4F)n3n2)n[nH]1 [PCM-0095222],56.6%
15,CC[C@H](c1ccc(O)cc1)[C@@H](CC)c1ccc(O)cc1 [PCM-0095223],-11.7%
16,CC(C)C[C@H](NC(=O)CNC(=O)c1cc(Cl)ccc1Cl)B(O)O [PCM-0095224],5.4%
17,CC(C)C[C@H](NC(=O)CNC(=O)c1cc(Cl)ccc1Cl)B1OC(=O)CC(CC(=O)O)(C(=O)O)O1 (stereo partly drawn) [PCM-0095225],-2.1%
18,Cc1ccc(C(=O)N(CCCN)[C@@H](c2oc3cc(Cl)ccc3c(=O)c2Cc2ccccc2)C(C)C)cc1 [PCM-0095226],-2.3%
19,CCC[C@@H]1C[C@@H](C(=O)N[C@@H]([C@H]2O[C@H](SC)[C@H](O)[C@@H](O)[C@H]2O)[C@@H](C)O)N(C)C1 [PCM-0095227],-4.7%
20,CNC1CCCN(c2c(F)cc3c(=O)c(C(=O)O)cn(C4CC4)c3c2OC)C1 (stereo not drawn) [PCM-0095230],-5.4%
21,CCOC(=O)c1c(C)n(C)c2ccc(O)cc12 [PCM-0095233],-14%
22,Cc1cccc(-c2[nH]c(C(C)(C)C)nc2-c2ccc3c(c2)OCO3)n1 [PCM-0095234],9.3%
23,CC(C)C1CCC(C(=O)N[C@H](Cc2ccccc2)C(=O)O)CC1 (stereo partly drawn) [PCM-0095239],-4.7%

row,SMILES,inhibition at 10 µM
1,Cc1ccccc1-n1c(Cn2ncc3c(N)ncnc32)nc2cccc(C)c2c1=O [PCM-0095248],4.1%
2,C[C@H](NC(=O)Cc1cc(F)cc(F)c1)C(=O)N[C@H](C(=O)OC(C)(C)C)c1ccccc1 [PCM-0095251],-29%
3,FC(F)(F)c1ccc(/C=C/c2nc(COc3ccc(CCCCn4ccnn4)cc3)co2)cc1 [PCM-0095252],13.1%
4,COc1cc2c(cc1OC)CC(=O)N(CCCN(C)C[C@H]1Cc3cc(OC)c(OC)cc31)CC2 [PCM-0095255],-3.1%
5,Cc1cccc(Cc2cnc[nH]2)c1C [PCM-0095257],-20.2%
6,C=C(c1ccc(C(=O)O)cc1)c1cc2c(cc1C)C(C)(C)CCC2(C)C [PCM-0095260],14%
7,CCOC(=O)[C@H](CCc1ccccc1)N[C@H]1CS[C@H](c2cccs2)CN(CC(=O)O)C1=O [PCM-0095261],-1.6%
8,N#CC1(c2ccc(NC(=O)c3cccnc3NCc3ccncc3)cc2)CCCC1 [PCM-0095263],2.8%
9,CCCC(=O)O [PCM-0095272],0%
10,CN1C(=O)COc2c(C(=O)NC3CN4CCC3CC4)cc(Cl)cc21 (stereo not drawn) [PCM-0095275],-7.7%
11,Cc1nnc(C(=O)NC(C)(C)c2nc(C(=O)NCc3ccc(F)cc3)c(O)c(=O)n2C)o1 [PCM-0095277],4.7%
12,CC[C@@H]1C(=O)N(C)c2cnc(Nc3ccc(C(=O)NC4CCC(N5CCN(CC6CC6)CC5)CC4)cc3OC)nc2N1C(C)C (stereo partly drawn) [PCM-0095279],-14.5%
13,CC(C)C(=O)Oc1ccc(CO)cc1[C@H](CCN(C(C)C)C(C)C)c1ccccc1 [PCM-0095281],-0.8%
14,CC(C)[C@H](C(=O)Nc1ccc(C(=O)NO)cc1)c1ccccc1 [PCM-0095283],17.1%
15,Nc1cc(C(F)(F)F)c(-c2cc(N3CCOCC3)nc(N3CCOCC3)n2)cn1 [PCM-0095286],-4.1%
16,O=C1c2cccc(O)c2C(=O)c2c(O)cc(CO)cc21 [PCM-0095288],16.3%
17,O=C1c2ccccc2C(=O)c2c1ccc(O)c2O [PCM-0095289],49.8%
18,COc1ccc(C[C@@H]2c3cc(OC)c(OC)cc3CC[N@+]2(C)CCC(=O)OCCCCCOC(=O)CC[N@@+]2(C)CCc3cc(OC)c(OC)cc3[C@H]2Cc2ccc(OC)c(OC)c2)cc1OC [PCM-0095290],-8.6%
19,CCOCC(O)COc1ccc(NC(=O)CC[S+](C)C)cc1 (stereo not drawn) [PCM-0095295],0%
20,OC[C@H]1OC(O)[C@H](O)[C@@H](O)[C@@H]1O (stereo partly drawn) [PCM-0095297],-10.1%
21,CC(=O)O[C@@]12CO[C@@H]1C[C@H](O)[C@@]1(C)C(=O)[C@H](O)C3=C(C)[C@@H](O)C[C@@](O)([C@@H](OC(=O)c4ccccc4)[C@H]21)C3(C)C [PCM-0095302],9.3%
22,CCCCCCCCCCCCCCCC(=O)OC[C@H](O)[C@H]1OC(=O)C(O)=C1O [PCM-0095304],-34.2%

# The remaining lines, values ahead:
row,inhibition at 10 µM,SMILES
1,-2.6%,CN(C)c1ccc(-c2nc3ncc(Cl)c(N4CCN(CC(=O)Nc5nccs5)CC4)c3[nH]2)cc1 [PCM-0095191]
2,-17.9%,COc1cc(Nc2nc3ccccc3nc2NS(=O)(=O)c2ccc(NC(=O)c3ccc(C)c(OC)c3)cc2)cc(OC)c1 [PCM-0095193]
3,37.2%,C=CCn1c(=O)c2cnc(Nc3ccc(N4CCN(C)CC4)cc3)nc2n1-c1cccc(C(C)(C)O)n1 [PCM-0095195]
4,1.4%,CC(C)(C)c1cc(NC(=O)Nc2ccc(-c3cn4c(n3)sc3cc(OCCN5CCOCC5)ccc34)cc2)no1 [PCM-0095196]
5,-16.3%,C=CCc1cc(OC)c(O)c(C(=O)NCCO)c1 [PCM-0095214]
6,-10.1%,CCN(CC)Cc1ccc2cc(COC(=O)Nc3ccc(C(=O)NO)cc3)ccc2c1 [PCM-0095219]
7,4.8%,CN(C)Cc1ccc(-c2nc3cccc4c3n2CCNC4=O)cc1 [PCM-0095220]
8,110%,C=CC(=O)Nc1ccc2ncnc(Nc3ccc(OCc4cccc(F)c4)c(Cl)c3)c2c1 [PCM-0095229]
9,-9%,O=C(C[S+]([O-])Cc1ccco1)NC/C=C\COc1cc(CN2CCCCC2)ccn1 (stereo not drawn) [PCM-0095231]
10,56%,CC(C)c1cc(C(C)C)c(CC(=O)NS(=O)(=O)Oc2c(C(C)C)cccc2C(C)C)c(C(C)C)c1 [PCM-0095235]
11,23.4%,CNC(=O)CN1CCC(Oc2cc3c(Nc4cccc(Cl)c4F)ncnc3cc2OC)CC1 [PCM-0095236]
12,0.7%,C[C@@H](Oc1cc(-n2cnc3ccc(CN4CCN(C)CC4)cc32)sc1C(N)=O)c1ccccc1C(F)(F)F [PCM-0095237]
13,45.5%,CN1CCC(CNc2ccc3ncc(-c4cccc(OC(F)(F)F)c4)n3n2)CC1 [PCM-0095238]
14,68.3%,Nc1nccc(Oc2ccc(NC(=O)c3c[nH]cc(-c4ccc(F)cc4)c3=O)cc2F)c1Cl [PCM-0095240]
15,4.8%,Cc1ccc(C(=O)Nc2cccc(C(F)(F)F)c2)cc1Nc1nc(-c2cccnc2)nc2c1cnn2C [PCM-0095241]
16,31%,C#Cc1cccc(Nc2ncnc3cc(OCCOC)c(OCCO)cc23)c1 [PCM-0095242]
17,-6.2%,CCOC(=O)[C@H](CCc1ccccc1)N[C@@H](C)C(=O)N1Cc2cc(OC)c(OC)cc2C[C@H]1C(=O)O [PCM-0095243]

row,inhibition at 10 µM,SMILES
1,18.7%,CCCC(=O)OCOC(=O)C1=C(C)NC(C)=C(C(=O)OC)C1c1cccc(Cl)c1Cl (stereo not drawn) [PCM-0095244]
2,99.3%,Cc1cc(Nc2nc(N[C@@H](C)c3ccc(F)cc3)c(C#N)cc2F)n[nH]1 [PCM-0095250]
3,16.6%,N#CCNC(=O)c1ccc(-c2ccnc(Nc3ccc(N4CCOCC4)cc3)n2)cc1 [PCM-0095254]
4,10.9%,COC(c1ccccc1)(c1ccccc1)[C@H](Oc1nc(C)cc(C)n1)C(=O)O [PCM-0095259]
5,-2.1%,CN(C)CCOc1ccc(-c2nc(-c3ccc4c(c3)CCC4=NO)c(-c3ccncc3)[nH]2)cc1 [PCM-0095262]
6,-5.5%,CC[C@H](Nc1ncnc2nc[nH]c12)c1nc2cccc(F)c2c(=O)n1-c1ccccc1 [PCM-0095266]
7,11.7%,Cc1cccc(-c2nn3c(c2-c2ccnc4ccc(C(N)=O)cc24)CCC3)n1 [PCM-0095269]
8,15.2%,CNC(=O)c1cc(COc2nnc(Nc3ccc(Cl)cc3)c3ccoc23)ccn1 [PCM-0095270]
9,31.9%,COc1cc2c(cc1Cc1cccc(Cl)c1F)c(=O)c(C(=O)O)cn2[C@H](CO)C(C)C [PCM-0095274]
10,15.2%,COc1ccc(COc2cc3oc(=O)c4cc(C(C)O)ccc4c3cc2OC)cc1 (stereo not drawn) [PCM-0095280]
11,24.8%,CCC[C@H](NC(=O)/C(C#N)=C/c1cccc(Br)n1)c1ccccc1 [PCM-0095282]
12,13.1%,O=C(O)c1ccc2c(c1)nc(Nc1cccc(Cl)c1)c1ccncc12 [PCM-0095287]
13,33.5%,COc1ccc(Cn2ccc3ccc(C(=O)NO)cc32)cc1 [PCM-0095291]
14,62.3%,CCCCc1oc2ccc(NS(C)(=O)=O)cc2c1C(=O)c1ccc(OCCCN(CCCC)CCCC)cc1 [PCM-0095292]
15,-2.1%,CCCCOc1c(C(=O)c2c(F)cc(C)cc2F)cnc2n[nH]cc12 [PCM-0095294]
16,10.1%,CCOC(=O)c1c(CSc2ccccc2)n(C)c2cc(Br)c(O)c(CN(C)C)c12 [PCM-0095296]
